Measurements taken from patent US8093183B2, “Methods for using polyol esters to control pests” (S.C. Johnson & Son, Inc., priority 2004, dated 2012).
Read-outs that look alike come from different tables or passages of the source.

System: German cockroaches
Conditions: spraying about three grams of formulation
Description: In our experiments we created aqueous solutions of sucrose octanoate and sorbitol octanoate by diluting the more concentrated formulations provided by the aforesaid manufacturers. We created varied concentrations ranging from 0.05% through 10%.
We tested our formulations by spraying them on cockroaches, ants, crickets, silverfish, wasps, bristletails, hornets, centipedes, earwigs, spiders and sowbugs.

sucrose octanoate
kill at 24 hours (0.1% concentration): essentially no kill | kill at 24 hours (1% concentration): about 80% | kill (5% concentration): 100%
